Results taken from patent US11000604B2, “Reagent for site-selective bioconjugation of proteins or antibodies” (Research Foundation of the City University of New York, priority 2017, dated 2021).

What was measured:
Format in all cases: physicochemical
[1] = Reaction of PODS with model thiol Boc-L-cysteine (with TCEP); conditions: pH 7.5, TCEP
Description: In order to study the reactivity of PODS with thiols, Boc-L-cysteine was used as a model thiol in conjunction with the mild reducing agent tris(2-carboxyethyl)phosphine (TCEP), whose role was the reduction of any latent cystine species in solution (FIG. 2).
(§1) The reaction between PODS and Boc-L-cysteine was quantitative in less than 2 minutes at pH 7.5. See FIG. 3A, FIG. 3B and FIG. 3C. In a move toward a model closer to proteins and peptides, a tripeptide containing a central cysteine—glutathione—was reacted with PODS as well. Again, the conjugation reaction reached completion before the first measurement could be acquired (<3 min at pH 7.5).

[2] = Stability of PODS solutions in DMSO; conditions: solution in DMSO, room temperature
Description: All intermediates were obtained in >95% purity using minimal equipment and simple procedures without chromatographic purifications. The methyl thioether 1 was obtained quantitatively via the methylation of the thiol with methyl iodide; unfortunately, we were not able to replace the use of the toxic methyl iodide with any safer reagent. The coupling between 1 and the carboxylic acid-bearing PEG chain was performed using EDCI as a coupling agent. Overnight reaction at room temperature led to the complete consumption of the starting material but also the formation of degradation products. It was possible to separate 2 from the two unidentified impurities by precipitating it with a mixture of ethyl acetate and cyclohexane. The oxidation of 2 was performed using the peracid mCPBA. This lead to the formation of the methylsulfone 3 with a yield of 90%. Finally, PODS was obtained from 3 after the quantitative deprotection of the terminal amine using a solution of trifluoroacetic acid in dichloromethane. Solutions of PODS in DMSO were stable at room temperature and have been kept at room temperature for 5 months without any noticeable signs of degradation.

[3] = Reaction of PODS with glutathione; conditions: pH 7.5
Description: as §1

CS(=O)(=O)c1nnc(-c2ccc(NC(=O)CCC(=O)NCCCOCCOCCOCCCN)cc2)o1 [PODS, N^1-(3-(2-(2-(3-Aminopropoxy)ethoxy)ethoxy)propyl)-N′-(4-(5-(methylsulfonyl)-1,3,4 oxadiazol-2-yl)phenyl)succinamide]
time to quantitative reaction with Boc-L-cysteine [1]: less than 2 minutes
time kept without any noticeable signs of degradation [2]: ≥ 5 months
time to completion of conjugation reaction with glutathione [3]: < 3 min
